Read-outs that look alike come from different tables or passages of the source.
Assays:
Ovarian Cell Line IGROV1 = type: cell-based; settings: Homo sapiens
PI3Kδ = PI3Kδ (Homo sapiens, UniProt O00329); experiment: PI3Kδ kinase assay (HTRF); type: biochemical; settings: for inhibition at 1 µM: symbols ** / *, read-out: PI3Kδ Inhibition Activity (% Inhibition class)
Description: (§1) The PIP3 product is detected by displacement of biotin-PIP3 from an energy transfer complex consisting of Europium labeled anti-GST monoclonal antibody, a GST-tagged pleckstrin homology (PH) domain, biotinylated PIP3 and Streptavidin-Allophycocyanin (APC). […] The PIP3 product formed by PI 3-Kinase(h) activity displaces biotin-PIP3 from the complex resulting in a loss of energy transfer, and thus, a decrease in signal.
(§2) First, the kinase reaction with PIP2 substrate is carried out in the presence of ATP, and the reaction is quenched with stop Solution, and then, finally detect by adding Detection Mixture followed by incubation.
(§3) HEPES 50 mM (pH7.0), NaN3 0.02%, BSA 0.01%, Orthovanadate 0.1 mM, 1% DMSO.
(§4) Detection buffer: HEPES 10 mM (pH7.0), BSA 0.02%, KF 0.16 M, EDTA 4 mM.
(§5) 10 μM PIP2 substrate (PI(4,5)P2)
(§6) 10 μM ATP under standard conditions
(§7) 1. Prepare substrate in freshly prepared Reaction Buffer.
(§8) 2. Deliver kinase into the substrate solution and gently mix.
(§9) 3. Deliver compounds in 100% DMSO into the kinase reaction mixture by Acoustic technology (Echo550; nanoliter range), incubate for 10 min at room temperature.
(§10) 4. Deliver ATP into the reaction mixture to initiate the reaction.
(§11) 5. Incubate for 30 min at 30° C.
(§12) 6. Quench the reaction with Stop Solution.
(§13) 7. Add Detection Mixture, and incubate for overnight.
(§14) The emission ratio is converted into μM PIP3 production based on PIP3 standard curves.
(§15) The nonlinear regression to obtain the standard curve and IC50 values are performed using Graphpad Prism software.

[1] = test system: Melanoma Cell Line UACC-62; experiment: cells; type: cell-based; settings: Homo sapiens
PI3Kα = PI3Kα (Homo sapiens, UniProt P42336); experiment: PI3Kα kinase assay (HTRF); type: biochemical
PI3Kα, sequence (P42336 whole entry): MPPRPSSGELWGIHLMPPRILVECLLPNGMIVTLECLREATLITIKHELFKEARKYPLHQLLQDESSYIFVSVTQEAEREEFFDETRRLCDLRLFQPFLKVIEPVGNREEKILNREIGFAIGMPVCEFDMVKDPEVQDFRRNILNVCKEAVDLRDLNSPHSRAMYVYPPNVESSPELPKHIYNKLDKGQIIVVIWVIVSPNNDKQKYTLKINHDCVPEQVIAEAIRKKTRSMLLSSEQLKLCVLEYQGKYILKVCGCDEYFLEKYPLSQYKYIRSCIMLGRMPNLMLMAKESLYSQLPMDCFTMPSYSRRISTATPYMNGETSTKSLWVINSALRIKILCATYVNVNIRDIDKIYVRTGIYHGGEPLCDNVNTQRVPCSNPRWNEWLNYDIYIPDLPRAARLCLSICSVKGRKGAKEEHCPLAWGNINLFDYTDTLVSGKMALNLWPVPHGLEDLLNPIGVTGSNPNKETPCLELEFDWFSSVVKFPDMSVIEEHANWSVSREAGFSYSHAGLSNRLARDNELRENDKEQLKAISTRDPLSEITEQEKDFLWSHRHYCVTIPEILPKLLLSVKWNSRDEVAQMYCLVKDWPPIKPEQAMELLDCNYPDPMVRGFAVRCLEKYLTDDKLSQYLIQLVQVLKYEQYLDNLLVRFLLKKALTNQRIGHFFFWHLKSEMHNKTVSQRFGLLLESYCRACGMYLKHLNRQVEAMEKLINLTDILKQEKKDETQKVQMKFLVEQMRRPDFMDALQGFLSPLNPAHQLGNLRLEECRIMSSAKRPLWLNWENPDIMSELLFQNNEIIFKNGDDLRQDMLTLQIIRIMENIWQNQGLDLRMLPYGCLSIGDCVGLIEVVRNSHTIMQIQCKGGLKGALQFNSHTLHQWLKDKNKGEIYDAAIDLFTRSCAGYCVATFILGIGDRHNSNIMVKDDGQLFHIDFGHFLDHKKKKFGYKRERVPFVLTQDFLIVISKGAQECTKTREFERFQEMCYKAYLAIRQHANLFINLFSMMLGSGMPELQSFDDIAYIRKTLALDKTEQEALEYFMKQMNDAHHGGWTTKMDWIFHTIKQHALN
PI3Kα, sequence (P27986 whole entry partner): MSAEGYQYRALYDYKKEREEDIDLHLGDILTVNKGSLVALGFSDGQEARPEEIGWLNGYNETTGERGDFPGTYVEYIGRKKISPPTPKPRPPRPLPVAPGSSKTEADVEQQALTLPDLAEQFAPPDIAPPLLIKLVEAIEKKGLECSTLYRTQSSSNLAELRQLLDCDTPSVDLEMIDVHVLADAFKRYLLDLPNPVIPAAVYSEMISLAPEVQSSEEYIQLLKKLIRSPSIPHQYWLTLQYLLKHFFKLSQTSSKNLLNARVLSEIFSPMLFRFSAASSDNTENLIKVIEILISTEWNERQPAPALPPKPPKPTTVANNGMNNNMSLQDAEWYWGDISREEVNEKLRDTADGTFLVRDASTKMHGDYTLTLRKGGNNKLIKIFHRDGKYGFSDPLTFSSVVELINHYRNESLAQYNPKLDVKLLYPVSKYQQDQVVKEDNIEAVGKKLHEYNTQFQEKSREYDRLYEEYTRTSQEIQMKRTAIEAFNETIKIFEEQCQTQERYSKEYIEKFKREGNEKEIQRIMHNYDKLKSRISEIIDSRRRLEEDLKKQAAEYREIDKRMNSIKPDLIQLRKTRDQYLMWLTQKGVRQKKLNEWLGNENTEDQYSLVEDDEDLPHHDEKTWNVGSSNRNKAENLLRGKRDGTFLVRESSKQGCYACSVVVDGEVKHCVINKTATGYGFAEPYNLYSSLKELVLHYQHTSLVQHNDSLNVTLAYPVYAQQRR
Description: as §1, §2, §3, §4, §5, §6, §7, §8, §9, §10, §11, §12, §13, §14, §15

HDAC6 = biological target: T1, HDAC6 (Homo sapiens, UniProt Q9UBN7); experiment: HDAC Fluorescent Activity Assay; type: biochemical; settings: for inhibition at 1 µM: symbols ** / *, read-out: HDAC6 Inhibition Activity (% Inhibition class)
T1 sequence (Q9UBN7 1-1215): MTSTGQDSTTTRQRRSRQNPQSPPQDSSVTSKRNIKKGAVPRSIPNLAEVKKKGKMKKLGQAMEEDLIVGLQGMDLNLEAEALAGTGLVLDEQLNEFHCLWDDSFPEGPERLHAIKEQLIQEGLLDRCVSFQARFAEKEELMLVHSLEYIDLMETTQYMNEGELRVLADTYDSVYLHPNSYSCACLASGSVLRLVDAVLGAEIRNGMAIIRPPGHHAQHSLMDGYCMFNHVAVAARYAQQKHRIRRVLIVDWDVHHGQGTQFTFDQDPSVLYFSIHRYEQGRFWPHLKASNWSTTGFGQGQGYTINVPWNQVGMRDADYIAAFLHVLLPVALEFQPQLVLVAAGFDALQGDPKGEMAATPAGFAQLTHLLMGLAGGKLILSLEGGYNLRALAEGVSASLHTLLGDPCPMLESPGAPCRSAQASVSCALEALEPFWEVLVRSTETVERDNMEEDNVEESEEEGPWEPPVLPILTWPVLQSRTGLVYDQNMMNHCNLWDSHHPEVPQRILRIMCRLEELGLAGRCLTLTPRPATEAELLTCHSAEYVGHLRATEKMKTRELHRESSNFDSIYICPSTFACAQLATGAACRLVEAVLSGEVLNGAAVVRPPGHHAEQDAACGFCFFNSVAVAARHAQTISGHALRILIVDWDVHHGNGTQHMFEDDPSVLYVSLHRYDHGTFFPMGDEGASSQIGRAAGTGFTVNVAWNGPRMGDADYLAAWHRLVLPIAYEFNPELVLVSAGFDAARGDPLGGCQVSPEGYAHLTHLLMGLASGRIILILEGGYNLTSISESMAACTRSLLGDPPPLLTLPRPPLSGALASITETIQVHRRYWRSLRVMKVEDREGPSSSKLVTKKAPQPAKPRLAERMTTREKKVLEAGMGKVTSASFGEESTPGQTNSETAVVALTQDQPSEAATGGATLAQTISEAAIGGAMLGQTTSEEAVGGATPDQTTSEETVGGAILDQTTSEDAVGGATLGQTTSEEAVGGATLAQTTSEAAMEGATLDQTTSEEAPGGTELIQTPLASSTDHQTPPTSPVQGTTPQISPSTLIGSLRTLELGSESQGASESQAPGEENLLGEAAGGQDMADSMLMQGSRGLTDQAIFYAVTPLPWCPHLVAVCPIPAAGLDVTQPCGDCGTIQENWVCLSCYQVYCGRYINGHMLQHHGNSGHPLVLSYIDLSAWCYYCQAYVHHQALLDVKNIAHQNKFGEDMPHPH
Description: This protocol is to determine the IC50s or percentage of inhibition values of the test compound against HDACs.
The HDAC Fluorescent Activity Assay is based on the unique Fluorogenic Substrate and Developer combination. […] First, the Fluorogenic Substrate, which comprises an acetylated lysine side chain, is incubated with a purified HDAC enzyme. Deacetylation of the substrate sensitizes the substrate so that, in the second step, treatment with the Developer produces a fluorophore.
Testing compounds were dissolved in 100% DMSO to specific concentration. […]
1. Deliver 2× enzyme in wells of reaction plate except No Enzyme control wells. Add buffer in No En wells.
2. Deliver compounds in 100% DMSO into the enzyme mixture by Acoustic technology (Echo550; nanoliter range). Spin down and pre-incubation.
3. Deliver 2× Substrate Mixture (Fluorogenic HDAC Substrate and co-factor if applicable) in all reaction wells to initiate the reaction. Spin and shake.
4. Incubate for 1-2 hr at 30° C. with seal.
5. Add Developer with Trichostatin A (or TMP269) to stop the reaction and to generate fluorescent color.
6. Fluorescence was read (excitatory, 360; emission, 460) using the EnVision Multilabel
7. Take endpoint reading for analysis after the development reaches plateau.
The percentages of enzyme activity (relative to DMSO controls) and IC50 values were calculated using the GraphPad Prism 4 program based on a sigmoidal dose-response equation.

[2] = test system: Breast Cancer Cell Line HS 578T; type: cell-based; settings: Homo sapiens, read-out: inhibition of proliferation
Leukemia Cell Line SR = experiment: cells; type: cell-based; settings: Homo sapiens, read-out: inhibition of proliferation
[3] = test system: Leukemia Cell Line HL-60(TB); type: cell-based; settings: Homo sapiens
[4] = test system: Leukemia Cell Line CCRF-CEM; experiment: cells; type: cell-based; settings: Homo sapiens, read-out: inhibition of proliferation
[5] = test system: Breast Cancer Cell Line BT-549; experiment: cells; type: cell-based; settings: Homo sapiens, BT-549, read-out: inhibition of proliferation
PI3Kγ = PI3Kγ (Homo sapiens, UniProt P48736); experiment: PI3Kγ kinase assay (HTRF); type: biochemical
PI3Kγ, sequence (P48736 whole entry): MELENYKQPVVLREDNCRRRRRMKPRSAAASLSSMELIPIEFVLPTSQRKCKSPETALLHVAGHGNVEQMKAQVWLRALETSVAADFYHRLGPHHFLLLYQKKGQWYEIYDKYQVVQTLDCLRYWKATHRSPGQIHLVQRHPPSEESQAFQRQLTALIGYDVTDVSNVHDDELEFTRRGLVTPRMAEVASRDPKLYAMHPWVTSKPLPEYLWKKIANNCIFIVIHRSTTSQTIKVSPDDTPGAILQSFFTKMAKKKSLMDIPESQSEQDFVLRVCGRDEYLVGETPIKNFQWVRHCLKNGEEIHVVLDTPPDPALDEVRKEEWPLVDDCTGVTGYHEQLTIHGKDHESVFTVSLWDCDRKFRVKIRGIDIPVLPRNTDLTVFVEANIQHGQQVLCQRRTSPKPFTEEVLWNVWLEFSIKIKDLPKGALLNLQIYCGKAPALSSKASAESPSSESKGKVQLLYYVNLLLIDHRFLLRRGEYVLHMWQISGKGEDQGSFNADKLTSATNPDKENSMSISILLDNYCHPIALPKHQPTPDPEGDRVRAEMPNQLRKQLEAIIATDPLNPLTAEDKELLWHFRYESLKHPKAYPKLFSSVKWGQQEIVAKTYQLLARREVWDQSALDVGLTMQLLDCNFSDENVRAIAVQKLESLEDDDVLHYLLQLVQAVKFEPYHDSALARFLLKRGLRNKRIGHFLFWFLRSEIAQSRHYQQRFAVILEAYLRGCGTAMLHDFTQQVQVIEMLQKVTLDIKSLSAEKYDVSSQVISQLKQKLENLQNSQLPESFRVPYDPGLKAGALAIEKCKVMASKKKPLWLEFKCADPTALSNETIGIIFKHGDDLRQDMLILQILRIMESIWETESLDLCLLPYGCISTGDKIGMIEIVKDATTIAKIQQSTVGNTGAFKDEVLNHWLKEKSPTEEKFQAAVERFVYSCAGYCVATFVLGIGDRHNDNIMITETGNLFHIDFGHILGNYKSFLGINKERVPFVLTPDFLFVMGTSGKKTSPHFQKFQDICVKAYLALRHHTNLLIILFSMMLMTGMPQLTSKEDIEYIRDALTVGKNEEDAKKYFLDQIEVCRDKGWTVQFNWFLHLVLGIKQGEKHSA
Description: as §1, §2, §3, §4, §5, §6, §7, §8, §9, §10, §11, §12, §13, §14, §15

[6] = test system: Breast Cancer Cell Line MDA-MB-468; experiment: cells; settings: Homo sapiens, MDA-MB-468, read-out: inhibition of proliferation
PI3Kβ = PI3Kβ (Homo sapiens, UniProt P42338); experiment: PI3Kβ kinase assay (HTRF); type: biochemical
PI3Kβ, sequence (P42338 whole entry): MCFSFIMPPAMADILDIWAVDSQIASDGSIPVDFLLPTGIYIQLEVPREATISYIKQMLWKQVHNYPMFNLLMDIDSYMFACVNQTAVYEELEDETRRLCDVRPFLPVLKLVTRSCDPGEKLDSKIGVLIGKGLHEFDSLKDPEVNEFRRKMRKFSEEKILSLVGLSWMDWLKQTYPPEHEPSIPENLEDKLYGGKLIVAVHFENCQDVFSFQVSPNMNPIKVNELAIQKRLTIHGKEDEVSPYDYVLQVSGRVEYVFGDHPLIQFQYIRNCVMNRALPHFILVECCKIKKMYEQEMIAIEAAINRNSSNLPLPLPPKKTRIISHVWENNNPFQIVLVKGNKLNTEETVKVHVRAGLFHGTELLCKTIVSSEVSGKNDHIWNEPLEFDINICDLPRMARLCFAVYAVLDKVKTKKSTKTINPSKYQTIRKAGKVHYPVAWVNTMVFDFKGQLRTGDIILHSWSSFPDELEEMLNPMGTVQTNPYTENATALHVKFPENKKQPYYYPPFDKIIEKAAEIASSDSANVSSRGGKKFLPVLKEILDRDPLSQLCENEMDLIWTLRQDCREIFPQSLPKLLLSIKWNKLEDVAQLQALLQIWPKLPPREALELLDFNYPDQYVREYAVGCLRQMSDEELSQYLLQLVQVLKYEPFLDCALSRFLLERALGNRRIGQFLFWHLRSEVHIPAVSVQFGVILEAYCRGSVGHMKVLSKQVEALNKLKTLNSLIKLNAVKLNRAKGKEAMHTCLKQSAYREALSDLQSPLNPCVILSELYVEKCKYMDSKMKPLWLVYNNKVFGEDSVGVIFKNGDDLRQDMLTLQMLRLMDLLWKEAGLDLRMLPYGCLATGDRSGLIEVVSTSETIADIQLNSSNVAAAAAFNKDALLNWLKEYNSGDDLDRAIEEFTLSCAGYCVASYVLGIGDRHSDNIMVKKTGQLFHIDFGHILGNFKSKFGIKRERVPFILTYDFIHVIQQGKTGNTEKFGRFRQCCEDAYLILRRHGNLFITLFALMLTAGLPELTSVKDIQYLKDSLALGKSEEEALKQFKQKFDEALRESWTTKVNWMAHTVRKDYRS
PI3Kβ, sequence (P27986 whole entry partner): as the sequence (P27986 whole entry partner) above
Description: as §1, §2, §3, §4, §5, §6, §7, §8, §9, §10, §11, §12, §13, §14, §15

[7] = test system: Leukemia Cell Line RPMI-8226; type: cell-based; settings: Homo sapiens
[8] = test system: Ovarian Cell Line OVCAR-8; experiment: cells; type: cell-based; settings: Homo sapiens, OVCAR-8, read-out: inhibition of proliferation
[9] = test system: Ovarian Cell Line OVCAR-3; experiment: cells; settings: Homo sapiens, OVCAR-3, read-out: inhibition of proliferation
[10] = test system: Leukemia Cell Line MOLT-4; type: cell-based; settings: Homo sapiens
[11] = test system: Ovarian Cell Line NCI/ADR-RES; experiment: cells; type: cell-based; settings: Homo sapiens, read-out: inhibition of proliferation
[12] = IGROV-1, read-out: inhibition of proliferation
[13] = UACC-62, read-out: inhibition of proliferation
[14] = HL-60, read-out: inhibition of proliferation
[15] = RPMI-8226, read-out: inhibition of proliferation
[16] = MOLT-4, read-out: inhibition of proliferation
[17] = HS 578T, single dose, 10 uM compound concentration

PI3Kδ, sequence (O00329 whole entry): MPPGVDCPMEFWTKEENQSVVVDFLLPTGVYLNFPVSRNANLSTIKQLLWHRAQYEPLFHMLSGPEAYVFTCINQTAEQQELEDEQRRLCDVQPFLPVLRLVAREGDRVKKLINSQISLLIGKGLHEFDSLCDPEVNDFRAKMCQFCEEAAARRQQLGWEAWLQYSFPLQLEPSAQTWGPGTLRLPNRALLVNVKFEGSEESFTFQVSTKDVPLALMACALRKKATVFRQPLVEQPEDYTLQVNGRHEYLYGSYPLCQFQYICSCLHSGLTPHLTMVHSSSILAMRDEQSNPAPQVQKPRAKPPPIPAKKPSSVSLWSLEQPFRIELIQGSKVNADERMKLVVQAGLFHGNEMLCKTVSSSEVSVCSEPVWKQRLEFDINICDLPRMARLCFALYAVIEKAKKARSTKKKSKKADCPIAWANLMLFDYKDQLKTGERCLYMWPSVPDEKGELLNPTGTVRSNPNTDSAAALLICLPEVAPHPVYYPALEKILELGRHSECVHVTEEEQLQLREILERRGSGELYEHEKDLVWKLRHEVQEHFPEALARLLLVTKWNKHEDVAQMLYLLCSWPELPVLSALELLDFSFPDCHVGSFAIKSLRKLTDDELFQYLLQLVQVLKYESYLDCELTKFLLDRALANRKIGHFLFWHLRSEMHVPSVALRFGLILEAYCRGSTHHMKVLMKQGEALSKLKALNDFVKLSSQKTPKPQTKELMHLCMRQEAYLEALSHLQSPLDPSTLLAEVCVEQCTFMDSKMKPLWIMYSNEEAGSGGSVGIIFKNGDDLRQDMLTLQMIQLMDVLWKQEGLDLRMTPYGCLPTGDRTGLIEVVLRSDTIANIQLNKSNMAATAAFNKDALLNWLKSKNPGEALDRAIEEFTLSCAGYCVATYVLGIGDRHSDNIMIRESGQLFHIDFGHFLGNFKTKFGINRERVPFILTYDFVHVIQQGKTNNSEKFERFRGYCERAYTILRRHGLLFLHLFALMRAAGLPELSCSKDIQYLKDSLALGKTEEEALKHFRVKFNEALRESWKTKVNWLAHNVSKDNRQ
PI3Kδ, sequence (P27986 whole entry partner): as the sequence (P27986 whole entry partner) above

Structure (SMILES) | inhibition at 10 µM (Ovarian Cell Line IGROV1; [12]) [%] | inhibition at 10 µM [1, 13] [%] | inhibition at 1 µM (PI3Kα) [%] | inhibition at 10 µM ([2]; Hs-578T) [%] | inhibition at 10 µM (Leukemia Cell Line SR) [%] | inhibition at 10 µM [3, 14] [%] | inhibition at 10 µM [4] [%] | inhibition at 10 µM [5] [%] | inhibition at 1 µM (PI3Kγ) [%] | inhibition at 10 µM [6] [%] | inhibition at 1 µM (PI3Kβ) [%] | inhibition at 10 µM [7, 15] [%] | inhibition at 10 µM [8] [%] | inhibition at 10 µM [9] [%] | inhibition at 10 µM [10, 16] [%] | inhibition at 1 µM (PI3Kδ) [%] | inhibition at 1 µM (HDAC6) [%] | inhibition at 10 µM [2, 17] [%] | also measured
CC[C@H](Nc1ncnc2[nH]cnc12)c1nc2cccc(CCCCNC(=O)NO)c2c(=O)n1-c1ccccc1 [Compound XXIV] | > 50 | 25 to 50 | < 85 | 25 to 50 | 25 to 50 | > 50 | 25 to 50 | 25 to 50 | 91 | 25 to 50 | < 85 |  |  |  |  |  |  |  | IC50 (PI3Kδ; symbols ++ / +, read-out: PI3Kδ Inhibition Activity (IC50 class)): < 100 nM; IC50 (HDAC6; symbols ++ / +, read-out: HDAC6 Inhibition Activity (IC50 class)): > 100 nM
CC[C@H](Nc1cc(C)nc(N)n1)c1nc2cccc(NCc3ccc(C(=O)NO)cc3)c2c(=O)n1-c1ccccc1 [XLI, (S)-4-(((2-(1-((2-amino-6-methylpyrimidin-4-yl)amino)propyl)-4-oxo-3-phenyl-3,4-dihydroquinazolin-5-yl)amino)methyl)-N-hydroxybenzamide] | > 50 | > 50 |  | > 50 |  | > 50 | > 50 | > 50 |  | > 50 |  | > 50 | > 50 | > 50 | > 50 |  |  |  | 
CC[C@H](Nc1ncnc2[nH]cnc12)c1nc2cccc(CC(=O)c3ccc(C(=O)NO)cc3)c2c(=O)n1-c1ccccc1 [Compound I, (S)-4-(2-(2-(1-((9H-purin-6-yl)amino)propyl)-4-oxo-3-phenyl-3,4-dihydroquinazolin-5-yl)acetyl)-N-hydroxybenzamide] |  |  | < 85 |  |  |  |  |  | < 85 | 25 to 50 | < 85 |  |  |  |  | > 90 | > 90 | 25 to 50 | inhibition at 10 µM ([7]; RPMI-8226, single dose, 10 uM compound concentration, read-out: inhibition of proliferation): > 50%; inhibition at 10 µM (Leukemia Cell Line SR; SR, single dose, 10 uM compound concentration): 25 to 50%; inhibition at 10 µM ([10]; MOLT-4, single dose, 10 uM compound concentration, read-out: inhibition of proliferation): 25 to 50%
CC[C@H](Nc1ncnc2[nH]cnc12)c1nc2cccc(CCCCC(=O)NO)c2c(=O)n1-c1ccccc1 [XII, (S)-5-(2-(1-((9H-purin-6-yl)amino)propyl)-4-oxo-3-phenyl-3,4-dihydroquinazolin-5-yl)-N-hydroxypentanamide] |  |  |  | 25 to 50 | > 50 |  | 25 to 50 |  |  | 25 to 50 |  | > 50 |  |  | 25 to 50 |  |  |  | 
CC[C@H](Nc1nc(N)nc(C)c1C#N)c1nc2cccc(NCc3ccc(C(=O)NO)cc3)c2c(=O)n1-c1ccccc1 [Compound XL, (S)-4-(((2-(1-((2-amino-5-cyano-6-methylpyrimidin-4-yl)amino)propyl)-4-oxo-3-phenyl-3,4-dihydroquinazolin-5-yl)amino)methyl)-N-hydroxybenzamide] | > 50 | > 50 |  | > 50 |  | > 50 | > 50 | > 50 |  | > 50 |  | > 50 | > 50 | > 50 | > 50 |  |  |  | inhibition at 10 µM [11]: 25 to 50%
CC[C@H](Nc1nc(N)nc(C)c1C#N)c1nc2cccc(N3CCC(CC(=O)NO)CC3)c2c(=O)n1-c1ccccc1 [XLIX, (S)-2-(1-(2-(1-((2-amino-5-cyano-6-methylpyrimidin-4-yl)amino)propyl)-4-oxo-3-phenyl-3,4-dihydroquinazolin-5-yl)piperidin-4-yl)-N-hydroxyacetamide] |  |  |  |  |  |  |  |  |  | 25 to 50 |  |  |  |  |  | > 90 | < 90 | 25 to 50 | inhibition at 10 µM (Ovarian Cell Line IGROV1; IGROV-1, IGROV1, single dose, 10 uM compound concentration, read-out: inhibition of proliferation): 25 to 50%; inhibition at 10 µM ([1]; UACC-62, single dose, 10 uM compound concentration, read-out: inhibition of proliferation): 25 to 50%; inhibition at 10 µM ([3]; HL-60(TB), single dose, 10 uM compound concentration, read-out: inhibition of proliferation): 25 to 50%; inhibition at 10 µM ([4]; single dose, 10 uM compound concentration): 25 to 50%

Source: patent US20200165257A1, “INHIBITORS OF PHOSPHOINOSITIDE 3-KINASE AND HISTONE DEACETYLASE FOR TREATMENT OF CANCER” (THE UNITED STATES OF AMERICA, AS REPRESENTED BY THE …, priority 2017, published 2020)
